What was measured:
Type in all cases: in vivo
[1] = test system: Lamium purpureum; assay: Post-emergence test, weed control; conditions: 2–4 weeks after treatment, rating 0-100 (100=death), Table 5
Method: (§1) These acetone solutions are diluted with water and the resulting formulations applied at dosage levels equivalent of about 0.030 to 0.240 kg per hectare of test compound per pot. After spraying the plants are placed an greenhouse benches and are cared for in the usual manner, commensurate with conventional greenhouse practices. From 2 to 4 weeks after treatment, the seedling plants are examined and rated according to the rating system provided above. A rating 0 indicates growth as untreated control, a rating 100 indicates death.

[2] = test system: Galium aparine; assay: Post-emergence test, weed control; conditions: 2–4 weeks after treatment, rating 0-100 (100=death), Table 5
Method: as §1

[3] = test system: Stellaria media; assay: Post-emergence test, weed control; conditions: 2–4 weeks after treatment, rating 0-100 (100=death), Table 5
Method: as §1

[4] = test system: VIOAR; assay: Post-emergence test, weed control; conditions: 2–4 weeks after treatment, rating 0-100 (100=death), Table 5
Method: as §1

[5] = test system: Polygonum convolvulus; assay: Post-emergence test, weed control; conditions: 2–4 weeks after treatment, rating 0-100 (100=death), Table 5
Method: as §1

[6] = test system: Setaria viridis; assay: Post-emergence test, weed control; conditions: 2–4 weeks after treatment, rating 0-100 (100=death), Table 5
Method: as §1

[7] = test system: Matricaria inodora; assay: Post-emergence test, weed control; conditions: 2–4 weeks after treatment, rating 0-100 (100=death), Table 5
Method: as §1

[8] = test system: Lolium perenne; assay: Pre-emergence test, weed control; conditions: 3 weeks after treatment, rating 0-100 (100=death), Table 1
Method in brief: (§2)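 Test compounds in acetone with 0.4% TRITON X-155, diluted with water, were sprayed onto freshly sown horticultural loam at 15, 30, 60, 120 or 240 g a.i./ha in 900 L/ha. Visual assessment three weeks after spraying, on a 0–100 scale (0 = as untreated control, 100 = death).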

[9] = test system: Lamium purpureum; assay: Pre-emergence test, weed control; conditions: 3 weeks after treatment, rating 0-100 (100=death), Table 1
Method in brief: as §2

[10] = test system: Apera spica-venti; assay: Pre-emergence test, weed control; conditions: 3 weeks after treatment, rating 0-100 (100=death), Table 1
Method in brief: as §2

[11] = test system: Galium aparine; assay: Pre-emergence test, weed control; conditions: 3 weeks after treatment, rating 0-100 (100=death), Table 1
Method in brief: as §2

[12] = test system: Stellaria media; assay: Pre-emergence test, weed control; conditions: 3 weeks after treatment, rating 0-100 (100=death), Table 1
Method in brief: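 Scores from 0 (growth like untreated control) to 100 (death) were assigned by eye three weeks post-spray, with 10 units approximating a 10% change in effect. Treatment was applied to freshly sown loam at 15 to 240 g active material per hectare.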

[13] = test system: Alopecurus myosuroides; assay: Pre-emergence test, weed control; conditions: 3 weeks after treatment, rating 0-100 (100=death), Table 1
Method in brief: as §2

[14] = test system: Polygonum convolvulus; assay: Pre-emergence test, weed control; conditions: 3 weeks after treatment, rating 0-100 (100=death), Table 1
Method in brief: as §2

[15] = test system: Setaria viridis; assay: Pre-emergence test, weed control; conditions: 3 weeks after treatment, rating 0-100 (100=death), Table 1
Method in brief: as §2

[16] = test system: Matricaria inodora; assay: Pre-emergence test, weed control; conditions: 3 weeks after treatment, rating 0-100 (100=death), Table 1
Method in brief: as §2

[17] = test system: Veronica persica; assay: Pre-emergence test, weed control; conditions: 3 weeks after treatment, rating 0-100 (100=death), Table 1
Method in brief: as §2

[18] = test system: Poa annua; assay: Pre-emergence test, weed control; conditions: 3 weeks after treatment, rating 0-100 (100=death), Table 1
Method in brief: as §2

[19] = test system: Triticum aestivum variety “Monopol”; assay: Post-emergence test, selectivity; conditions: 2–4 weeks after treatment, rating 0-100 (100=death), Table 6
Method: as §1

[20] = test system: Triticum aestivum variety “Kanzler”; assay: Post-emergence test, selectivity; conditions: 2–4 weeks after treatment, rating 0-100 (100=death), Table 6
Method: as §1

FC(F)(F)c1ccc(-c2nccc(Oc3cccc(C(F)(F)F)c3)n2)cc1 [TTP, 4-(3-trifluoromethylphenoxy)-2-(4-trifluoromethyl-phenyl)-pyrimidine]
80: GALAP weed control rating ([2]; 0.120 kg/ha) | POLCO weed control rating ([14]; 0.015 kg/ha)
50: STEME weed control rating ([3]; 0.030 kg/ha) | MATIN weed control rating ([7]; 0.030 kg/ha) | GALAP weed control rating ([11]; 0.060 kg/ha) | ALOMY weed control rating ([13]; 0.030 kg/ha)
2: TRZAWK rating (Selectivity) ([20]; 0.03 kg/ha)
30: GALAP weed control rating ([11]; 0.030 kg/ha)
35: POLCO weed control rating ([5]; 0.120 kg/ha)
100: SETVI weed control rating ([6]; 0.240 kg/ha) | LOLPE weed control rating ([8]; 0.240 kg/ha) | LAMPU weed control rating ([9]; 0.030 kg/ha) | LAMPU weed control rating ([9]; 0.060 kg/ha) | LAMPU weed control rating ([9]; 0.120 kg/ha) | LAMPU weed control rating ([9]; 0.240 kg/ha) | APESV weed control rating ([10]; 0.015 kg/ha) | APESV weed control rating ([10]; 0.030 kg/ha) | APESV weed control rating ([10]; 0.060 kg/ha) | APESV weed control rating ([10]; 0.120 kg/ha) | APESV weed control rating ([10]; 0.240 kg/ha) | STEME weed control rating ([12]; 0.060 kg/ha) | STEME weed control rating ([12]; 0.120 kg/ha) | STEME weed control rating ([12]; 0.240 kg/ha) | ALOMY weed control rating ([13]; 0.120 kg/ha) | ALOMY weed control rating ([13]; 0.240 kg/ha) | POLCO weed control rating ([14]; 0.030 kg/ha) | POLCO weed control rating ([14]; 0.060 kg/ha) | POLCO weed control rating ([14]; 0.120 kg/ha) | POLCO weed control rating ([14]; 0.240 kg/ha) | SETVI weed control rating ([15]; 0.015 kg/ha) | SETVI weed control rating ([15]; 0.030 kg/ha) | SETVI weed control rating ([15]; 0.060 kg/ha) | SETVI weed control rating ([15]; 0.120 kg/ha) | SETVI weed control rating ([15]; 0.240 kg/ha) | MATIN weed control rating ([16]; 0.060 kg/ha) | MATIN weed control rating ([16]; 0.120 kg/ha) | MATIN weed control rating ([16]; 0.240 kg/ha) | VERPE weed control rating ([17]; 0.015 kg/ha) | VERPE weed control rating ([17]; 0.030 kg/ha) | VERPE weed control rating ([17]; 0.060 kg/ha) | VERPE weed control rating ([17]; 0.120 kg/ha) | VERPE weed control rating ([17]; 0.240 kg/ha) | POAAN weed control rating ([18]; 0.015 kg/ha) | POAAN weed control rating ([18]; 0.030 kg/ha) | POAAN weed control rating ([18]; 0.060 kg/ha) | POAAN weed control rating ([18]; 0.120 kg/ha) | POAAN weed control rating ([18]; 0.240 kg/ha)
15: ALOMY weed control rating ([13]; 0.015 kg/ha) | TRZAWK rating (Selectivity) ([20]; 0.24 kg/ha)
75: LAMPU weed control rating ([1]; 0.060 kg/ha) | MATIN weed control rating ([7]; 0.120 kg/ha) | GALAP weed control rating ([11]; 0.120 kg/ha)
5: GALAP weed control rating ([11]; 0.015 kg/ha)
97: GALAP weed control rating ([2]; 0.060 kg/ha) | SETVI weed control rating ([6]; 0.060 kg/ha) | SETVI weed control rating ([6]; 0.120 kg/ha)
85: LAMPU weed control rating ([1]; 0.030 kg/ha)
12: TRZAWM rating (Selectivity) ([19]; 0.24 kg/ha)
98: MATIN weed control rating ([16]; 0.015 kg/ha)
70: STEME weed control rating ([3]; 0.120 kg/ha) | LOLPE weed control rating ([8]; 0.015 kg/ha)
60: GALAP weed control rating ([2]; 0.030 kg/ha) | STEME weed control rating ([3]; 0.060 kg/ha) | POLCO weed control rating ([5]; 0.060 kg/ha)
90: STEME weed control rating ([3]; 0.240 kg/ha) | VIOAR weed control rating ([4]; 0.030 kg/ha) | POLCO weed control rating ([5]; 0.240 kg/ha) | MATIN weed control rating ([7]; 0.060 kg/ha) | MATIN weed control rating ([7]; 0.240 kg/ha) | ALOMY weed control rating ([13]; 0.060 kg/ha)
95: VIOAR weed control rating ([4]; 0.240 kg/ha)
10: POLCO weed control rating ([5]; 0.030 kg/ha)
93: LAMPU weed control rating ([1]; 0.240 kg/ha) | GALAP weed control rating ([2]; 0.240 kg/ha) | SETVI weed control rating ([6]; 0.030 kg/ha) | GALAP weed control rating ([11]; 0.240 kg/ha)
99: LOLPE weed control rating ([8]; 0.030 kg/ha) | LOLPE weed control rating ([8]; 0.060 kg/ha) | LOLPE weed control rating ([8]; 0.120 kg/ha) | LAMPU weed control rating ([9]; 0.015 kg/ha) | STEME weed control rating ([12]; 0.015 kg/ha) | STEME weed control rating ([12]; 0.030 kg/ha) | MATIN weed control rating ([16]; 0.030 kg/ha)
1: TRZAWM rating (Selectivity) ([19]; 0.03 kg/ha)
8: TRZAWM rating (Selectivity) ([19]; 0.06 kg/ha) | TRZAWM rating (Selectivity) ([19]; 0.12 kg/ha) | TRZAWK rating (Selectivity) ([20]; 0.06 kg/ha) | TRZAWK rating (Selectivity) ([20]; 0.12 kg/ha)
92: LAMPU weed control rating ([1]; 0.120 kg/ha) | VIOAR weed control rating ([4]; 0.060 kg/ha) | VIOAR weed control rating ([4]; 0.120 kg/ha)

Reference: patent US7008905B2, “Method of combating undesired plant growth on cereals” (BASF Aktiengesellschaft, priority 2000, dated 2006)
